Data taken from paper PMC10803328 (Scientific Reports, 2024).
pKi: −log10 of the molar value. “And” between values parts separate entries of the source, which are not always exact repeats. Identical values can stand only once. “Also recorded” adds a separate entry of the source.

How the values were obtained:
[1] = Lipophilicity measurement (logD7.4) by partition; type: physicochemical; details: n = 6
Procedure: Aliquots were distributed to 16 borosilicate disposable culture tubes (13 × 100 mm). The tubes were divided into two groups of […]. […] Extraction was performed by vortexing the tubes with their content for 1 min. The tubes were then centrifuged for 1 min. The organic and the aqueous phases were separated, and each phase was then sampled (50 µL) and counted separately in a well-type γ-counter (model 1480 Wizard; Perkin-Elmer) with an electronic window set between 360 and 1800 keV. The remaining two tubes, containing the radioactivity in buffer, served as stability measures for the radioligand. […] The aqueous phases were injected onto the HPLC. The resulting radiochromatograms provided correction factors for the γ-counter counts, of the aqueous samples, to determine parent radioligand radioactivity only (corrected radioactivity)[32]. LogD7.4octanol and logD7.4cyclohexane were each calculated as log((cpm in organic phase)/(corrected cpm in aqueous phase)).

PSAM^4-GlyR [2] = assay: PET imaging and arterial plasma radiometabolite analysis in monkey transduced with PSAM^4-GlyR in the left amygdala; type: in vivo, rhesus monkey
Procedure: All studies were conducted in accordance with “Animal Research: Reporting of In Vivo Experiments” guidelines as well as Guidelines for the Care and Use of Laboratory Animals, 8th Edition, and were approved by the National Institute of Mental Health Animal Care and Use Committee. A lentivirus carrying an PSAM^4 expressed under a human synapsin promoter (Lenti-hSyn-PSAM^4-GlyR) was injected into the left amygdala of a single rhesus macaque (11-year-old male). 14 × 20 μL of virus was injected at 1.0 μL/min speed. The virus titer was measured at 1 × 10^9 i.u./mL. The surgery was performed under aseptic conditions in a fully equipped operating suite.
(§1) All PET imaging studies were performed with a Mediso LFER 150 preclinical scanner (nanoScan PET/CT). Brain and brain region radioactivity uptake was expressed by standardized uptake value (SUV) which normalizes for injected radioactivity and monkey body weight, as follows: SUV = [(% injected dose per g tissue) × body weight in g]/100.
(§2) Two male rhesus monkeys (macaca mulatta; 10.0 and 8.6 kg) underwent PET scanning. Each monkey was initially immobilized with ketamine (10 mg/kg, i.m.) and then maintained under anesthesia with 1.5% isoflurane. For each monkey, a baseline scan was performed for 120 min. […] Electrocardiogram, body temperature, heart, and respiration rates were monitored throughout the scans.
(§3) Total radioactivity concentrations in sampled arterial whole blood and plasma were measured in a γ-counter throughout the 90-min scanning period.
(§4) PET images were reconstructed using Fourier rebinding plus two-dimensional filtered back-projection with attenuation and scatter correction. Images were co-registered to a standardized monkey MRI template using the FMRIB Software Library (FSL; Oxford, UK). Thirty-four predefined brain regions of interest from the template were applied to the co-registered PET image to obtain regional, decay-corrected, time-activity curves.

[3] = Plasma free fraction by ultrafiltration, pooled human standard plasma; type: in vitro ADME
Procedure: (§5) In vitro stability was calculated by dividing the relative composition of the blood or brain homogenate determined with radio-HPLC by the initial radiochemical purity of the radioligand. […] The mixture was incubated at room temperature for 10 min and then processed exactly as described previously. The ultrafiltration components that contained high radioactivity were allowed time for radioactivity decay to within the optimal range of the γ-counter before they were counted again.

[4] = Plasma free fraction, monkey plasma; type: in vitro ADME, rhesus monkey; details: baseline
Procedure: as §5

[5] = system: efflux transporters (P-gp and BCRP); assay: PET imaging in wild-type and dual efflux transporter knockout mice; type: in vivo, mouse
Procedure: as §1
Radioligand was injected intravenously via a tail vein catheter followed by PET imaging for 90 min. Whole brain uptake in SUV was compared between wild type and knockout mice.

[6] = In vitro stability in rat brain homogenate, whole blood and plasma; type: in vitro ADME
Procedure: as §5
Five milliliters of anticoagulated blood (STD-A) and brain (1.8 g) were harvested from a wild-type rat (~ 450 g) and used in the in vitro assays. The brains were immediately weighed and homogenized with twice their weights (3.6 mL) of ice cold 0.9% NaCl solution. Plasmas were separated from whole blood via centrifugation. […] Following incubation, aliquots (450 µL) were removed for radio-analysis and processed as detailed above for radio-HPLC analysis.
Anticoagulated blood (STD-A; 5 mL) and brain (1.8 g) were harvested from a wild-type rat (~ 450 g) and used for the in vitro assays. The brains were immediately weighed and homogenized with twice their weights (3.6 mL) of ice-cold 0.9% saline. Plasma was separated from whole blood via centrifugation. […] Aliquots (450 µL) were then removed for radio analysis and processed as detailed above for radio-HPLC analysis.

PSAM^4-GlyR [7] = biological target: PSAM^4-GlyR (Homo sapiens, UniProt P23415+P36544, L131G/Q139L/Y217F); parameters: expressed in transfected cells; method as in PMID 30872534, PMID 24556591, PMID 36279419; details: read-out: PSAM^4-GlyR (Ki); in vitro binding assay, literature; cited from earlier work
[8] = PET imaging and arterial plasma radiometabolite analysis in non-transduced healthy monkey; type: in vivo, rhesus monkey
Procedure: as §1, §2, §3, §4

[9] = Plasma free fraction by ultrafiltration, rat plasma; type: in vitro ADME; details: fresh rat plasma, read-out: rat plasma free fraction (fP)
Procedure: as §5

[10] = in vitro incubation at 37 °C, rat
[11] = non-transduced healthy monkey, i.v., PET

Chain of PSAM^4-GlyR (Homo sapiens, UniProt P23415+P36544, L131G/Q139L/Y217F) (P36544+P23415 fused P36544:L131G/P36544:Q139L/P36544:Y217F): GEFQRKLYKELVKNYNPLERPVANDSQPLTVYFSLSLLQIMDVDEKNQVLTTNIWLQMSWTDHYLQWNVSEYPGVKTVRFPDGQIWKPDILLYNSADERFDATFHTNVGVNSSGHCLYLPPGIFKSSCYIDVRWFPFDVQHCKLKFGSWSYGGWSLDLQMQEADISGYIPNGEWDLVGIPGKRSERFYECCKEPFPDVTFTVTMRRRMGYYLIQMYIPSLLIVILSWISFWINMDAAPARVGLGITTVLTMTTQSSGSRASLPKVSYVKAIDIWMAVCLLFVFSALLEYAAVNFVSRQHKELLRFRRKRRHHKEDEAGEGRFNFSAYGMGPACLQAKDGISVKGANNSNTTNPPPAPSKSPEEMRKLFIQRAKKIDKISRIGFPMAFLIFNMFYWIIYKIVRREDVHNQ

SMILES: [11CH3]n1c(=O)cnc2cc3c(cc21)C1CNCC3C1 (stereo not shown) [[^11C]uPSEM792]
- ΔLogD7.4 (logD7.4(octanol) − logD7.4(cyclohexane)) [1]: 2.45 ± 0.03
- difference in uptake of radioactivity between left (PSAM^4-GlyR) and right amygdala (PSAM^4-GlyR [2]; PSAM^4-GlyR monkey, PET): No significant difference
- evidence of PSAM^4-GlyR specific binding in left amygdala (PSAM^4-GlyR [2]; PSAM^4-GlyR monkey, PET, compartmental modeling): do not reveal any evidence of specific binding; also recorded: no evidence was obtained for PSAM^4-GlyR specific binding
- time at which radiometabolites accounted for 50% of radioactivity in plasma (PSAM^4-GlyR [2]; male, rhesus monkey, in vivo): 30 min
- peak whole brain radioactivity uptake (PSAM^4-GlyR [2]; monkey transduced in the left amygdala with PSAM^4-GlyR, i.v., PET): ~ 0.8 SUV
- fraction unbound at 10 min, 2.6 MBq/mL [3]: 0.876
- fP (%) ([4]; PSAM^4-GlyR monkey): 89.42%
- fP (%) ([4]; non-transduced healthy monkey): 89.29%
- substrate for efflux transporters in vivo ([5]; dual P-gp and BCRP knockout vs wild-type mice): substrate for efflux transporters in vivo
- early peak brain radioactivity uptake ([5]; dual efflux transporter (P-gp and BCRP) knockout mice, i.v.): ~ 0.7 SUV
- in vitro stability in homogenized non-perfused rat brain ([6]; 30 min at 37 °C): 94%
- in vitro stability in rat plasma ([6]; 30 min at 37 °C): 85.4%
- in vitro stability in rat whole blood ([6]; 30 min at 37 °C): 83.8%
- HPLC Composition (%), in vitro fresh rat brain ([6]; in vitro incubation at 37 °C): 92%
- HPLC Composition (%), in vitro plasma [6, 10]: 83%
- HPLC Composition (%), in vitro whole blood [6, 10]: 82%
- pKi (PSAM^4-GlyR [7]): 9.15
- time at which radiometabolites represented half of the radioactivity in plasma ([8]; male, rhesus monkey, in vivo): 78 min
- unchanged radioligand peak in plasma radiochromatogram ([8]; male, rhesus monkey, in vivo, 120 min): 29%
- peak of whole brain time-activity curve [8, 11]: 0.8 SUV and ~ 0.8 SUV
- plateau of whole brain time-activity curve [8, 11]: about 0.65 SUV
- fraction unbound at 10 min, 2.6 MBq/mL [9]: 0.898
